± gives the standard deviation of the averaged measurements.
Test: TIMS collisional cross section (CCS, N2) of the lipid ion; higher = larger ion cross section
Settings: ionization mode: positive, one isomer drawn

Compound | TIMS collisional cross section (sample type: Liver) [Å²] | TIMS collisional cross section (sample type: HeLa) [Å²] | TIMS collisional cross section (sample type: plasma) [Å²]
CC/C=C\C/C=C\C/C=C\C/C=C\C/C=C\C/C=C\CCC(=O)O[C@H](COC(=O)CCCCCCCCCCCCCC)COP(=O)([O-])OCC[N+](C)(C)C [PC 15:0_22:6] (ion (formula + adduct): [C45H78NO8P+H] 1+) | 288 | – | –
CCCCC/C=C\C/C=C\C/C=C\C/C=C\CCCCCC(=O)O[C@H](COC(=O)CCCCCCC/C=C\CCCCC)COP(=O)([O-])OCC[N+](C)(C)C [PC 15:1_22:4] (ion (formula + adduct): [C45H80NO8P+H] 1+) | – | 290.2 | –
CC/C=C\C/C=C\C/C=C\C/C=C\C/C=C\C/C=C\CCC(=O)O[C@H](COC(=O)CCCCCCC/C=C\CCCCC)COP(=O)([O-])OCC[N+](C)(C)C [PC 15:1_22:6] (ion (formula + adduct): [C45H76NO8P+H] 1+) | – | – | 289.8
CCCCCC/C=C\CCCCCCCC(=O)O[C@H](COC(=O)CCCCCCCCCCCCCCC)COP(=O)([O-])OCC[N+](C)(C)C [PC 16:0@_16:1] (ion (formula + adduct): [C40H78NO8P+H] 1+) | – | 281.7 | 282.2
CCCCCCCC/C=C\C/C=C\C/C=C\CCCC(=O)O[C@H](COC(=O)CCCCCCCCCCCCCCC)COP(=O)([O-])OCC[N+](C)(C)C [PC 16:0@_20:3] (ion (formula + adduct): [C44H82NO8P+H] 1+) | 289.8 | – | –
CC/C=C\C/C=C\C/C=C\C/C=C\C/C=C\CCCC(=O)O[C@H](COC(=O)CCCCCCCCCCCCCCC)COP(=O)([O-])OCC[N+](C)(C)C [PC 16:0@_20:5] (ion (formula + adduct): [C44H78NO8P+H] 1+) | – | – | 290.6
CCCCC/C=C\C/C=C\C/C=C\C/C=C\C/C=C\CCC(=O)O[C@H](COC(=O)CCCCCCCCCCCCCCC)COP(=O)([O-])OCC[N+](C)(C)C [PC 16:0@_22:5] (ion (formula + adduct): [C46H82NO8P+H] 1+) | 293.8 | – | –
CCCCCCCCCCCCCCCC(=O)OC[C@H](COP(=O)([O-])OCC[N+](C)(C)C)OC(=O)CCCCCCCCCCCCCCC [PC 16:0_16:0] (ion (formula + adduct): [C40H80NO8P+H] 1+) | 285.5 | 286.1 | 285.7 ± 0.42
CCCCCC/C=C\CCCCCCCC(=O)O[C@H](COC(=O)CCCCCCCCCCCCCCC)COP(=O)([O-])OCC[N+](C)(C)C [PC 16:0_16:1@] (ion (formula + adduct): [C40H78NO8P+H] 1+) | – | 282 | –
CCCCCC/C=C\CCCCCCCC(=O)O[C@H](COC(=O)CCCCCCCCCCCCCCC)COP(=O)([O-])OCC[N+](C)(C)C [PC 16:0_16:1] (ion (formula + adduct): [C40H78NO8P+H] 1+) | 282.3 | 282.63 ± 1.3 | 282.3
CCCCCCC/C=C\CCCCCCCC(=O)O[C@H](COC(=O)CCCCCCCCCCCCCCC)COP(=O)([O-])OCC[N+](C)(C)C [PC 16:0_17:1] (ion (formula + adduct): [C41H80NO8P+H] 1+) | – | 285.8 | –
CCCCCCCC/C=C\CCCCCCCC(=O)O[C@H](COC(=O)CCCCCCCCCCCCCCC)COP(=O)([O-])OCC[N+](C)(C)C [PC 16:0_18:1] (ion (formula + adduct): [C42H82NO8P+H] 1+) | – | 288.37 ± 0.9 | 287.7
CCCCCCCC/C=C\CCCCCCCC(=O)O[C@H](COC(=O)CCCCCCCCCCCCCCC)COP(=O)([O-])OCC[N+](C)(C)C [PC 16:0_18:1] (ion (formula + adduct): [C42H82NO8P+Na] 1+) | – | 288.7 | –
CCCCC/C=C\C=C\CCCCCCCCC(=O)O[C@H](COC(=O)CCCCCCCCCCCCCCC)COP(=O)([O-])OCC[N+](C)(C)C [PC 16:0_18:2] (ion (formula + adduct): [C42H80NO8P+H] 1+) | 286.3 | – | 282.45 ± 2.8
CC/C=C\C/C=C\C/C=C\C/C=C\C/C=C\CCCC(=O)O[C@H](COC(=O)CCCCCCCCCCCCCCC)COP(=O)([O-])OCC[N+](C)(C)C [PC 16:0_20:5] (ion (formula + adduct): [C44H78NO8P+H] 1+) | 285.7 | – | –
CCCCC/C=C\C/C=C\C/C=C\C/C=C\C/C=C\CCC(=O)O[C@H](COC(=O)CCCCCCCCCCCCCCC)COP(=O)([O-])OCC[N+](C)(C)C [PC 16:0_22:5@] (ion (formula + adduct): [C46H82NO8P+H] 1+) | 292.7 | – | –
CCCCC/C=C\C/C=C\C/C=C\C/C=C\C/C=C\CCC(=O)O[C@H](COC(=O)CCCCCCCCCCCCCCC)COP(=O)([O-])OCC[N+](C)(C)C [PC 16:0_22:5] (ion (formula + adduct): [C46H82NO8P+H] 1+) | – | – | 293.3
CC/C=C/C/C=C/C/C=C/C/C=C/C/C=C/C/C=C/CCC(=O)O[C@H](COC(=O)CCCCCCCCCCCCCCC)COP(=O)([O-])OCC[N+](C)(C)C [PC 16:0_22:6] (ion (formula + adduct): [C46H80NO8P+H] 1+) | – | 291.8 | 292
CCCCC/C=C\C/C=C\C/C=C\CCCCC(=O)O[C@H](COC(=O)CCCCCCC/C=C\CCCCCC)COP(=O)([O-])OCC[N+](C)(C)C [PC 16:1@_18:3] (ion (formula + adduct): [C42H76NO8P+H] 1+) | – | 279.2 | 280.6
CCCCC/C=C\C/C=C\C/C=C\C/C=C\CCCC(=O)O[C@H](COC(=O)CCCCCCC/C=C\CCCCCC)COP(=O)([O-])OCC[N+](C)(C)C [PC 16:1@_20:4] (ion (formula + adduct): [C44H78NO8P+H] 1+) | – | – | 285.8
CC/C=C\C/C=C\C/C=C\C/C=C\C/C=C\CCCC(=O)O[C@H](COC(=O)CCCCCCC/C=C\CCCCCC)COP(=O)([O-])OCC[N+](C)(C)C [PC 16:1@_20:5] (ion (formula + adduct): [C44H76NO8P+H] 1+) | 282.8 | – | –
CCCCCC/C=C\CCCCCCCC(=O)OC[C@H](COP(=O)([O-])OCC[N+](C)(C)C)OC(=O)CCCCCCC/C=C\CCCCCCC [PC 16:1_17:1] (ion (formula + adduct): [C41H78NO8P+H] 1+) | – | 281.9 | –
CCCCCCCC/C=C\CCCCCCCC(=O)O[C@H](COC(=O)/C=C\CCCCCCCCCCCCC)COP(=O)([O-])OCC[N+](C)(C)C [PC 16:1_18:1] (ion (formula + adduct): [C42H80NO8P+H] 1+) | – | 286.6 | –
CCCCC/C=C\C/C=C\CCCCCCCC(=O)O[C@H](COC(=O)CCCCCCC/C=C\CCCCCC)COP(=O)([O-])OCC[N+](C)(C)C [PC 16:1_18:2@] (ion (formula + adduct): [C42H78NO8P+H] 1+) | – | 281 | –

Further lines, results first:

TIMS collisional cross section (sample type: Liver) [Å²] | TIMS collisional cross section (sample type: HeLa) [Å²] | TIMS collisional cross section (sample type: plasma) [Å²] | Compound
– | 272.8 | – | CCCCC/C=C\CCCCCCCC(=O)OC[C@H](COP(=O)([O-])OCC[N+](C)(C)C)OC(=O)CCCCCCC/C=C\CCCCCC [PC 15:1_16:1@] (ion (formula + adduct): [C39H74NO8P+H] 1+)
287.6 | 289.15 ± 0.49 | 288.2 | CCCCCCCC/C=C\CCCCCCCC(=O)O[C@H](COC(=O)CCCCCCCCCCCCCCC)COP(=O)([O-])OCC[N+](C)(C)C [PC 16:0@_18:1] (ion (formula + adduct): [C42H82NO8P+H] 1+)
283.5 | – | 284.9 | CCCCC/C=C\C=C\CCCCCCCCC(=O)O[C@H](COC(=O)CCCCCCCCCCCCCCC)COP(=O)([O-])OCC[N+](C)(C)C [PC 16:0@_18:2] (ion (formula + adduct): [C42H80NO8P+H] 1+)
– | 294.9 | – | CCCCC/C=C\C/C=C\C/C=C\C/C=C\CCCCCC(=O)O[C@H](COC(=O)CCCCCCCCCCCCCCC)COP(=O)([O-])OCC[N+](C)(C)C [PC 16:0@_22:4] (ion (formula + adduct): [C46H84NO8P+H] 1+)
291.4 | – | – | CCCCCCCCCCCCCCCCCC(=O)O[C@H](COC(=O)CCCCCCCCCCCCCCC)COP(=O)([O-])OCC[N+](C)(C)C [PC 16:0_18:0] (ion (formula + adduct): [C42H84NO8P+H] 1+)
282 | – | 282 | CCCCC/C=C\C/C=C\C/C=C\CCCCC(=O)O[C@H](COC(=O)CCCCCCCCCCCCCCC)COP(=O)([O-])OCC[N+](C)(C)C [PC 16:0_18:3] (ion (formula + adduct): [C42H78NO8P+H] 1+)
295.2 | – | – | CCCCCCCC/C=C\CCCCCCCCCC(=O)O[C@H](COC(=O)CCCCCCCCCCCCCCC)COP(=O)([O-])OCC[N+](C)(C)C [PC 16:0_20:1@] (ion (formula + adduct): [C44H86NO8P+H] 1+)
– | – | 290.5 | CCCCCCCC/C=C\C/C=C\C/C=C\CCCC(=O)O[C@H](COC(=O)CCCCCCCCCCCCCCC)COP(=O)([O-])OCC[N+](C)(C)C [PC 16:0_20:3] (ion (formula + adduct): [C44H82NO8P+H] 1+)
– | 286.9 | – | CC/C=C\C/C=C\C/C=C\C/C=C\C/C=C\CCCC(=O)O[C@H](COC(=O)CCCCCCCCCCCCCCC)COP(=O)([O-])OCC[N+](C)(C)C [PC 16:0_20:5@] (ion (formula + adduct): [C44H78NO8P+H] 1+)
282.8 | 282.6 | 282.6 | CCCCC/C=C\C/C=C\CCCCCCCC(=O)O[C@H](COC(=O)CCCCCCC/C=C\CCCCCC)COP(=O)([O-])OCC[N+](C)(C)C [PC 16:1_18:2] (ion (formula + adduct): [C42H78NO8P+H] 1+)
